From US6677276B1, “Herbicides for tolerant or resistant oil seed rape cultures” (Aventis CropScience GmbH, priority 1998, dated 2004)
Where a name gives a salt, the structure may show the parent alone.

Key:
[1] = test system: Galium aparine; test: Oil-seed rape field trial, herbicidal action (Table 3); type: in vivo; details: application in the 4-5 leaf stage, scoring 36 days after application
Method: (§1) Transgenic oil-seed rape plants with resistance to one or more herbicides (A) were grown together with typical weed plants in the open in 2×5 m plots under natural field conditions; alternatively, the weed population established naturally while the oil-seed rape plants grew. Treatment with the compositions according to the invention and, for control purposes, with separate application of the active ingredients of the components alone, was carried out under standard conditions with a plot sprayer at an application rate of 200-300 liters of water per hectare in parallel trials in accordance with the scheme of Table 1, i.e. pre-sowing/pre-emergence, post-sowing/-pre-emergence or post-emergence at the early, medium or late stage.
(§2) At 2, 4, 6 and 8 week intervals after application, the herbicidal activity of the active ingredients or active ingredient mixtures were scored visually by comparing the treated plots with untreated control plots. Damage and development of all aerial plant organs was recorded. The scoring was done using a percentage scale (100% activity=all plants dead; 50% activity=50% of the plants and green plant organs dead; 0% activity=no discernible effect=like control plot). The score values of in each case 4 plots were averaged.

[2] = test system: Cirsium arvense; test: Field trial, herbicidal action (Table 5); type: in vivo; details: application in the 4-leaf stage, scoring 15 days after application
Method: as §1, §2

[3] = test system: Chenopodium album; test: Field trial, herbicidal action (Table 5); type: in vivo; details: application in the 4-leaf stage, scoring 15 days after application
Method: as §1, §2

[4] = test system: Matricaria chamomita; test: Field trial, herbicidal action (Table 4); type: in vivo; details: post-emergence application in the 4-leaf stage, scoring 28 days after post-emergence application
Method: as §1, §2

[5] = test system: Datura stramonium; test: Oil-seed rape field trial, herbicidal action (Table 2); type: in vivo; details: application in the 5-leaf stage, scoring 3 weeks after application
Method: as §1
[…] Damage and development of all aerial plant organs was recorded. The scoring was done using a percentage scale (100% activity=all plants dead; 50% activity=50% of the plants and green plant organs dead; 0% activity=no discernible effect=like control plot). The score values of in each case 4 plots were averaged.

[6] = test system: Oil-seed rape LL; test: Field trial, crop plant tolerance; type: in vivo, Liberty-Link oil-seed rape; details: crop damage
Method: Transgenic oil-seed rape plants with resistance to one or more herbicides (A) were grown together with typical weed plants in the open in 2×5 m plots under natural field conditions; alternatively, the weed population established naturally while the oil-seed rape plants grew.
Damage and development of all aerial plant organs was recorded. […] The score values of in each case 4 plots were averaged.

CP(=O)(O)CCC(N)C(=O)O (stereo not shown) [(A1.2), glufosinate monoammonium salt]
Herbicidal action (%) against Galium aparine ([1]; 125 g of A.S./ha): 15% | Herbicidal action (%) against Galium aparine ([1]; 250 g of A.S./ha): 41% | Herbicidal action (%) against Galium aparine ([1]; 500 g of A.S./ha): 63% | Herbicidal action (%) against Cirsium arvense ([2]; 230 g of A.S./ha): 85% | Herbicidal action (%) against Cirsium arvense ([2]; 350 g of A.S./ha): 97% | Herbicidal action (%) against Chenopodium album ([3]; 230 g of A.S./ha): 90% | Herbicidal action % against Matricaria chamomita ([4]; 125 g of A.S./ha): 10% | Herbicidal action % against Matricaria chamomita ([4]; 250 g of A.S./ha): 35% | Herbicidal action % against Matricaria chamomita ([4]; 500 g of A.S./ha): 65% | Herbicidal action (%) against Datura stramonium ([5]; 600 g of A.S./ha): 90% | Oil-seed rape LL ([6]; 125 g of A.S./ha, 4-5 leaf stage, scoring 36 days after application): 0% | Oil-seed rape LL ([6]; 230 g of A.S./ha, 4-leaf stage, scoring 15 days after application): 0% | Oil-seed rape LL ([6]; 250 g of A.S./ha, 4-5 leaf stage, scoring 36 days after application): 0% | Oil-seed rape LL ([6]; 350 g of A.S./ha, 4-leaf stage, scoring 15 days after application): 0% | Oil-seed rape LL ([6]; 500 g of A.S./ha, 4-5 leaf stage, scoring 36 days after application): 3%

Cc1cccc(C)c1N(Cn1cccn1)C(=O)CCl [(B1.1), 2-chloro-N-(2,6-dimethylphenyl)-N-(1H-pyrazol-1-ylmethyl)acetanilide]
Herbicidal action (%) against Datura stramonium ([5]; 600 g of A.S./ha): 40% | Herbicidal action (%) against Datura stramonium ([5]; 1200 g of A.S./ha): 93%

Cc1cnc2c(C(=O)O)c(Cl)ccc2c1 [(B2.1), 7-chloro-3-methylquinoline-8-carboxylic acid]
Herbicidal action % against Matricaria chamomita ([4]; 300 g of A.S./ha): 50%

O=C(O)c1nc(Cl)ccc1Cl [(B2.2), 3,6-dichloropyridine-2-carboxylic acid]
Herbicidal action (%) against Cirsium arvense ([2]; 90 g of A.S./ha): 85% | Herbicidal action (%) against Chenopodium album ([3]; 90 g of A.S./ha): 50% | Oil-seed rape LL ([6]; 90 g of A.S./ha, 4-leaf stage, scoring 15 days after application): 0%

CCCCCCCCSC(=O)Oc1cc(Cl)nnc1-c1ccccc1 [(B2.3), O-(6-chloro-3-phenylpyridazin-4-yl) S-octyl thiocarbonate]
Herbicidal action % against Matricaria chamomita ([4]; 600 g of A.S./ha): 60%

CCOc1nc(NC)nc(NC(=O)NS(=O)(=O)c2ccccc2C(=O)OC)n1 [(B2.4), methyl 2-{N-[N-(4-ethyox-6-methylamino-1,3,5-triazin-2-yl)aminocarbonyl]aminosulfonyl}benzoate]
Herbicidal action (%) against Cirsium arvense ([2]; 15 g of A.S./ha): 0% | Herbicidal action (%) against Chenopodium album ([3]; 15 g of A.S./ha): 30% | Oil-seed rape LL ([6]; 15 g of A.S./ha, 4-leaf stage, scoring 15 days after application): 0%
